Reference: patent publication US20100004202A1, “Quaternary ammonium-functionalized-POSS compounds” (NDSU Research Foundation, priority 2008, published 2010)

Assays:
[1] = Solubility in methanol; format: physicochemical
Description: The octasilane-POSS, which was insoluble in methanol, was rendered soluble in methanol after the derivatization to Q-POSS.

[2] = system: E. coli; experiment: Minimum inhibitory concentration (MIC); format: cell-based; settings: overnight incubation 37° C., absorbance at 600 nm
Procedure: The minimum inhibitory concentration (MIC), of Q-POSS compounds and non-Q-POSS compounds were compared and the results are shown in Table 4. As used herein, MIC refers to the lowest concentration of an antimicrobial agent that will inhibit the visible growth of a microorganism after overnight incubation. The procedure was carried out by serially diluting the antimicrobial agent in growth medium and adding the appropriate microorganism. Three 200 μl aliquots of each dilution (inoculated with the appropriate microorganism) were transferred to a 96-well plate and allowed to incubate overnight at the appropriate temperature (37° C. for biomedical microorganisms such as E. coli). The plates were then measured for absorbance at 600 nm to determine microbial growth.

[3] = system: Escherichia coli ATCC 12435; experiment: Antimicrobial activity of Q-POSS in solution, bacterial log reduction; format: cell-based; settings: equal concentration 9.63×10^−5 moles/ml; 2 hrs at room temperature
Procedure: Antimicrobial characterization. The antimicrobial activity of the Q-POSS in methanol was determined as follows. Stocks of Escherichia coli ATCC 12435 and Staphylococcus aureus ATCC 25923 were maintained weekly at 4° C. on LBA and TSB, respectively. Broth cultures of E. coli (LBB) and S. aureus (TSB) were prepared by inoculating one colony into 10 ml of broth and incubating at 37° C. with shaking. Overnight cultures were pelleted via centrifugation (10 min at 4500 rpm), washed twice in 0.9% NaCl, and re-suspended to a 0.5 McFarland turbidity standard (˜10^8 cells/ml). Q-POSS (2 μL) was added to the bacterial suspension (1 mL) previously dispensed into a well of a sterile 24-well polystyrene plate. The plates were then placed on an orbital shaker and allowed to incubate for 2 hrs at room temperature. Each Q-POSS/bacterial suspension (0.1 mL of each) was immediately transferred to D/E neutralization medium (0.9 ml) in a 1.5 mL microcentrifuge tube, and serially diluted (1:10) in D/E medium. […] After 24 hr of incubation, the plates were removed from the incubator and photographed with a digital camera to quantify bacterial growth in solution. […] Methanol was also evaluated for antimicrobial activity as it was used to solublize the Q-POSS for biological evaluations. […]

| Compound | solubility in methanol [1] | MIC against E. coli [2] [µg/mL] | Log Reduction against E. coli [3] |
| --- | --- | --- | --- |
| C[SiH](C)O[Si]12O[Si]3(O[SiH](C)C)O[Si]4(O[SiH](C)C)O[Si](O[SiH](C)C)(O1)O[Si]1(O[SiH](C)C)O[Si](O[SiH](C)C)(O2)O[Si](O[SiH](C)C)(O3)O[Si](O[SiH](C)C)(O4)O1 [octasilane-POSS, Octasilane-POSS] | insoluble |  |  |
| Benzalkonium chloride |  | 50 | 7.0 |
